Laboratory results taken from ChEMBL document CHEMBL5257025, “Artemisinin-Derived Dimers: Potent Antimalarial and Anticancer Agents” (J Med Chem, 2016).

Tests used:
[1] = Cytotoxicity against rat MTLn3 cells assessed as cell growth inhibition; type: toxicity, cell-based
Plasmodium falciparum [2] = experiment: microbe, parasite or virus in culture; details: K1
Description: Antiplasmodial activity against Plasmodium falciparum K1 assessed as inhibition of parasitic growth

Plasmodium falciparum [3] = experiment: microbe, parasite or virus in culture; details: W2
Description: Antiplasmodial activity against Plasmodium falciparum W2 assessed as inhibition of cell growth

[4] = Cytotoxicity against African green monkey Vero cells; type: toxicity, cell-based; details: chlorocebus sabaeus, read-out: TC50 (the source's name)
Plasmodium falciparum [5] = experiment: microbe, parasite or virus in culture; details: D6
Description: Antiplasmodial activity against Plasmodium falciparum D6 assessed as inhibition of parasitic growth

Plasmodium falciparum [6] = experiment: microbe, parasite or virus in culture; details: Dd2
Description: Antiplasmodial activity against Plasmodium falciparum Dd2 assessed as inhibition of parasitic growth

Plasmodium falciparum [7] = experiment: Antimalarial activity against Plasmodium falciparum D10 assessed as inhibition of parasitic growth; type: functional, organism-based
[8] = Cytotoxicity against CHO cells assessed as reduction in cell viability; type: toxicity, cell-based, Cricetulus griseus; details: chinese hamster, read-out: TC50 (the source's name)
Plasmodium falciparum [9] = experiment: Antimalarial activity against Plasmodium falciparum 3D7 assessed as inhibition of malarial growth; type: functional, organism-based
Ehrlich = experiment: Cytotoxicity against mouse Ehrlich cells assessed as growth inhibition at 100 ug/ml; type: functional, cell-based
Plasmodium falciparum [10] = experiment: Antimalarial activity against Plasmodium falciparum K1 assessed as inhibition of malarial growth; type: functional, organism-based
BT-549 [11] = experiment: Antiproliferative activity against human BT-549 cells assessed as cell growth inhibition measured after 72 hrs by SRB assay; type: functional, cell-based; details: BT-549, 72 h
Plasmodium falciparum [12] = experiment: Antimalarial activity against Plasmodium falciparum W2 assessed as reduction in malarial growth; type: functional, organism-based
CAKI-2 = experiment: Antiproliferative activity against human CAKI-2 cells assessed as inhibition of cell growth; type: functional, cell-based
HL-60 [13] = experiment: Antiproliferative activity against human HL-60 cells assessed as cell growth inhibition measured after 48 hrs by SRB assay; type: functional, cell-based; details: HL-60, 48 h
Plasmodium falciparum [14] = experiment: Antimalarial activity against Plasmodium falciparum NF54 assessed as reduction in cell growth; type: functional, organism-based
SK-MEL [15] = experiment: Antiproliferative activity against human SK-MEL cells assessed as reduction in cell growth inhibition; type: functional, cell-based
HCT-15 = experiment: cells; details: Homo sapiens, HCT-15, 48 h
Description: Antiproliferative activity against human HCT-15 cells assessed as reduction in cell viability incubated for 48 hrs by MTT assay

A549 = experiment: cells; details: Homo sapiens, A549, 48 h
SK-VLB = experiment: Antiproliferative activity against human SK-VLB cells assessed as reduction in cell viability incubated for 48 hrs by MTT assay; type: functional, cell-based
KB = experiment: Antiproliferative activity against human KB cells assessed as reduction in cell viability incubated for 48 hrs by MTT assay; type: functional, cell-based
SK-MEL [16] = experiment: Antiproliferative activity against human SK-MEL cells assessed as reduction in cell viability incubated for 48 hrs by MTT assay; type: functional, cell-based
SK-OV-3 = experiment: Antiproliferative activity against human SK-OV-3 cells assessed as reduction in cell viability incubated for 48 hrs by MTT assay; type: functional, cell-based; details: SK-OV-3, 48 h
SK-MEL-2 = experiment: Antiproliferative activity against human SK-MEL-2 cells assessed as reduction in cell viability incubated for 48 hrs by MTT assay; type: functional, cell-based; details: SK-MEL-2, 48 h
HL-60 [17] = experiment: Antiproliferative activity against human HL-60 cells assessed as reduction in cell viability incubated for 48 hrs by MTT assay; type: functional, cell-based; details: HL-60, 48 h
BT-549 [18] = experiment: Antiproliferative activity against human BT-549 cells assessed as reduction in cell viability incubated for 48 hrs by MTT assay; type: functional, cell-based; details: BT-549, 48 h
Jurkat = experiment: Antiproliferative activity against human Jurkat cells assessed as reduction in cell viability incubated for 48 hrs by MTT assay; type: functional, cell-based
[19] = Cytotoxicity against pig LLC-PK1 cells; type: toxicity, cell-based, Sus scrofa; details: read-out: TC50 (the source's name)
XF498 = experiment: Antiproliferative activity against human XF498 cells assessed as reduction in cell viability incubated for 48 hrs by MTT assay; type: functional, cell-based; details: XF498, 48 h
ADR5000 cell line = experiment: Antiproliferative activity against human CEM/ADR5000 cells assessed as reduction in cell viability incubated for 48 hrs by MTT assay; type: functional, cell-based; details: ADR5000, 48 h
MCF7 = experiment: Antiproliferative activity against human MCF7 cells assessed as reduction in cell viability measured after 48 hrs by SRB assay; type: functional, cell-based; details: MCF7, 48 h
UACC-62 = experiment: Antiproliferative activity against human UACC-62 cells assessed as reduction in cell viability incubated for 48 hrs by SRB assay; type: functional, cell-based; details: UACC-62, 48 h
TK-10 = experiment: Antiproliferative activity against human TK-10 cells assessed as reduction in cell viability incubated for 48 hrs by SRB assay; type: functional, cell-based; details: TK-10, 48 h
BeWo = experiment: Antiproliferative activity against human BeWo cells assessed as reduction in cell viability after 72 hrs by MTT assay; type: functional, cell-based
EL4 = experiment: Antiproliferative activity against mouse EL4 cells assessed as cell growth inhibition incubated for 72 hrs by MTT assay; type: functional, cell-based; details: EL4, 72 h
[20] = Antiproliferative activity against human YD-10B cells assessed as cell growth inhibition measured after 72 hrs by MTT assay; type: functional, cell-based
P388 = experiment: Antiproliferative activity against mouse P388 cells assessed as cell growth inhibition incubated for 72 hrs by MTT assay; type: functional, cell-based; details: P388, 72 h
HT-29 = experiment: cells; details: Homo sapiens, HT-29, 72 h

Molecule C[C@@H]1CC[C@H]2[C@@H](C)C(CC(CC3O[C@@H]4O[C@]5(C)CC[C@@H]6[C@@H](C)CC[C@H]([C@@H]3C)[C@]46OO5)C(=O)N/N=C/c3ccccc3O)O[C@H]3O[C@@]4(C)CC[C@@H]1[C@]32OO4 (stereo partly specified) has an IC50 [1] of 52 nM.

C[C@H]1[C@@H](O)O[C@H]2O[C@@]3(C)CC[C@H]4[C@H](C)CC[C@@H]1[C@@]24OO3 gave an IC50 (Plasmodium falciparum [2]) of 2.09 nM, an IC50 (Plasmodium falciparum [3]) of 2.09 nM and a CC50 [4] of 1410 nM. For the same molecule, the IC50 (Plasmodium falciparum [5]) was 2.09 nM, the IC50 (Plasmodium falciparum [6]) was 2.09 nM and the IC50 (Plasmodium falciparum [7]) was 2.09 nM. For the same molecule, the CC50 [8] was 148000 nM and the IC50 (Plasmodium falciparum [9]) was 2.09 nM.

With C[C@H]1[C@@H](O[C@H]2O[C@H]3O[C@@]4(C)CC[C@H]5[C@H](C)CC[C@@H]([C@H]2C)[C@@]35OO4)O[C@H]2O[C@@]3(C)CC[C@H]4[C@H](C)CC[C@@H]1[C@@]24OO3 the IC50 (Ehrlich) was 31200 nM.

Molecule C[C@@H]1CC[C@H]2[C@@H](C)C(=O)O[C@@H]3O[C@@]4(C)CC[C@@H]1[C@]32OO4 [ARTEMISININ] has an IC50 (Plasmodium falciparum [10]) of 7.81 nM, an IC50 (BT-549 [11]) of 40000 nM and an IC50 (Plasmodium falciparum [12]) of 6.6 nM. It also gave an IC50 (CAKI-2) of 40000 nM, an IC50 (HL-60 [13]) of 40000 nM and a CC50 [4] greater than 1690 nM. For the same molecule, the IC50 (Plasmodium falciparum [6]) was 6.9 nM and the IC50 (Plasmodium falciparum [14]) was 6.9 nM.

In the case of COc1cccc2c1C(=O)c1c(O)c3c(c(O)c1C2=O)C[C@@](O)(C(=O)CO)C[C@@H]3O[C@H]1C[C@H](N)[C@H](O)[C@H](C)O1 [DOXORUBICIN], the IC50 (SK-MEL [15]) is reported as 170 nM, the IC50 (HCT-15) is reported as 9 nM and the IC50 (A549) is reported as 9 nM. The IC50 (SK-VLB) was 9 nM, the IC50 (KB) was 9 nM and the IC50 (SK-MEL [16]) was 9 nM. It also gave an IC50 (SK-OV-3) of 9 nM, an IC50 (SK-MEL-2) of 9 nM and an IC50 (HL-60 [17]) of 9 nM. For the same molecule, the IC50 (BT-549 [18]) was 9 nM, the IC50 (Jurkat) was 9 nM and the CC50 [19] was 1290 nM. It also gave an IC50 (XF498) of 9 nM and an IC50 (ADR5000 cell line) of 9 nM.

Work on COc1cc([C@@H]2c3cc4c(cc3[C@@H](O[C@@H]3O[C@@H]5CO[C@@H](C)O[C@H]5[C@H](O)[C@H]3O)[C@H]3COC(=O)[C@H]23)OCO4)cc(OC)c1O [ETOPOSIDE] yielded an IC50 (MCF7) of 830 nM, an IC50 (UACC-62) of 830 nM and an IC50 (TK-10) of 830 nM.

Molecule CC(=O)O[C@H]1C(=O)[C@@]2(C)[C@H]([C@H](OC(=O)c3ccccc3)[C@]3(O)C[C@H](OC(=O)[C@H](O)[C@@H](NC(=O)c4ccccc4)c4ccccc4)C(C)=C1C3(C)C)[C@]1(OC(C)=O)CO[C@@H]1C[C@@H]2O [PACLITAXEL] has an IC50 (SK-MEL [15]) of 0.1 nM, an IC50 (BeWo) of 0.1 nM and an IC50 (KB) of 0.1 nM. It also gave an IC50 (SK-OV-3) of 0.1 nM, an IC50 (EL4) of 0.1 nM and an IC50 (BT-549 [18]) of 0.1 nM. It also gave an IC50 (MCF7) of 0.1 nM, an IC50 [20] of 0.1 nM and an IC50 (P388) of 0.1 nM. The CC50 [19] was 4390 nM and the IC50 (HT-29) was 0.1 nM.
